PMC9311798, “A Novel Class of Potent Anti-Tyrosinase Compounds with Antioxidant Activity, 2-(Substituted phenyl)-5-(trifluoromethyl)benzo[d]thiazoles: In Vitro and In Silico Insights” (Antioxidants, 2022)

Key:
[1] = test system: B16F10 murine melanoma cells; test: Extracellular melanin content (melanin release into medium) in α-MSH/IBMX-stimulated cells; format: cell-based
Procedure: The anti-melanogenic activities of 1a and 1b were determined using a standard melanin content assay, with minor changes. Briefly, B16F10 cells were seeded in the wells of a 6-well plate at a density of 1 × 10^5 cells/well, and allowed to adhere to well bottoms over 24 h under the conditions used for cell culture (Section 2.3.5). […] Absorbances of culture media at 405 nm were used to determine extracellular melanin contents.

[2] = test system: tyrosinase glycosylation in B16F10 cells; test: Western blot of glycosylated and non-glycosylated tyrosinase; format: cell-based, murine; details: 2, 5, 10, 20 µM, 48 h; cytosolic fraction
Procedure: (§1) Five different concentrations of 1b (0, 2, 5, 10, and 20 µM) were exposed to B16F10 cells for 48 h, and the cells were washed with cold PBS two times, harvested, lysed, and centrifuged at 4 °C (12,000 rpm for 10 min). Cell pellets were suspended in 10 mM Tris (pH 8.0) containing 1.5 mM MgCl2, 1 mM DTT, 0.1% NP-40, and protease inhibitors (GenDEPOT), incubated on ice for 15 min, and centrifuged at 12,000× g for 15 min at 4 °C. Supernatants (cytosolic fractions) and pellets were resuspended in 10 mM Tris (pH 8.0) containing 50 mM KCl, 100 mM NaCl, and protease inhibitor, incubated on ice for 30 min, and centrifuged at 12,000× g for 15 min at 4 °C. The resultant supernatants were nuclear fractions. The protein concentrations were determined by a Bicinchoninic Acid (BCA)™ Assay Kit (Pierce, Rockford, IL, USA). The lysed protein samples were mixed in loading buffer (0.2% bromophenol blue, 12.5 mM Tris-HCl, pH 6.8, 10% 2-mercaptoethanol, and 4% SDS) at a volume ratio of 1:4, and boiled for 10 min. […] Quantification of Western blot data were analyzed by CS Analyzer 3.2 (Densitograph) image software (http://www.attokorea.co.kr, admitted on 21 May 2022).

[3] = test system: B16F10 murine melanoma cells; test: B16F10 cell viability assay (EZ-Cytox); format: cell-based; details: concentrations ≤20 μM, 48 h
Procedure: B16F10 murine melanoma cells were obtained from the American Type Culture Collection (ATCC, Manassas, VA, USA). Phosphate buffer solution (PBS), Dulbecco’s modified Eagle’s medium (DMEM), streptomycin, penicillin, trypsin, and fetal bovine serum (FBS) were purchased from Gibco/Thermo Fisher Scientific (Carlsbad, CA, USA). B16F10 cells were cultured in a DMEM solution comprising 10% heat-inactivated FBS, penicillin (100 IU/mL), and streptomycin (100 µg/mL), at 37 °C in a humidified 5% CO2 atmosphere. Experiments for anti-melanogenesis activity, cell viability, and anti-tyrosinase activity were assayed on these cells in 96- or 6-well culture plates.
Cell viability assays for B16F10 were performed using the EZ-Cytox assay (EZ-3000, DoGenBio, Seoul, Korea). In brief, B16F10 cells were seeded in a 96-well plate at a density of 1 × 10^4 cells/well, and cultured at 37 °C for 24 h in a humidified 5% CO2 atmosphere. The next day, B16F10 cells were exposed to six concentrations of 1a or 1b (0, 1, 2, 5, 10, or 20 μM), and incubated under the same conditions for 48 h. Then, the EZ-Cytox solution (10 μL) was added to each well, and the cells mixed with the EZ-Cytox solution were further incubated for 2 h. At 450 nm, optical densities were measured using a microplate reader (VersaMax^TM, Molecular Devices, Sunnyvale, CA, USA).

mushroom tyrosinase = target: T1, mushroom tyrosinase (Agaricus bisporus, UniProt C7FF04); test: Mushroom tyrosinase inhibition assay; format: biochemical; details: L-DOPA as substrate
T1 construct: purchased Sigma-Aldrich

[4] = test system: B16F10 murine melanoma cells; test: Intracellular melanin content in α-MSH/IBMX-stimulated cells; format: cell-based
Procedure: The cultured cells were rinsed with PBS twice and pellets were dissolved in 200 µL of 1N-NaOH solution containing 10% DMSO for 1 h at 60 °C. Cell lysates were then transferred to a 96-well plate, and the melanin absorbances were measured in aqueous DMSO at 405 nm using a microplate reader (VersaMax^TM, Molecular Devices, Sunnyvale, CA, USA).

MITF in B16F10 cells = test: Western blot of nuclear MITF; format: cell-based, murine; details: nuclear fraction
Procedure: as §1

T1 sequence (C7FF04 1-392 limits assumed): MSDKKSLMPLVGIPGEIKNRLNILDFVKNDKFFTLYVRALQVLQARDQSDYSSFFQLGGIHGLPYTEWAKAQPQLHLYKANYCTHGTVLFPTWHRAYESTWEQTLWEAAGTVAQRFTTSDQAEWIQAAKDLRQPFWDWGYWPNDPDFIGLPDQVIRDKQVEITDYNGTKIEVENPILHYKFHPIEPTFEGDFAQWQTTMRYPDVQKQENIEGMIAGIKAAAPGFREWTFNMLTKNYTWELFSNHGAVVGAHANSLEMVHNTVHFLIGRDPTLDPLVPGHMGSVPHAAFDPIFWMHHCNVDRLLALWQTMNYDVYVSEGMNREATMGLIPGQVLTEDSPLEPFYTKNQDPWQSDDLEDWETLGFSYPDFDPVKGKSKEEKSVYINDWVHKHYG

Oc1ccc(-c2nc3cc(C(F)(F)F)ccc3s2)c(O)c1 [Compound 1b, 4-(5-(Trifluoromethyl)benzo[d]thiazol-2-yl)benzene-1,3-diol]
melanin release ([1]; 20 µM): reduced melanin release to control levels
effect on melanin content in media ([1]; 5, 10, 20 µM, α-MSH (1 µM) + IBMX (200 µM), 48 h): concentration-dependently and significantly reduced melanin content increases
ratio of glycosylated tyrosinase to total tyrosinase [2]: significantly reduced
cytotoxic effect on B16F10 cell viability [3]: Neither compound exhibited a significant cytotoxic effect
IC50 (mushroom tyrosinase): 1.7 ± 0.11 µM
inhibition of α-MSH/IBMX-induced intracellular melanin increase ([4]; 10 µM, compared with kojic acid 20 µM): more potently inhibited α-MSH/IBMX-induced increases in melanin than kojic acid at 20 µM
intracellular melanin content, lower than untreated control group ([4]; 20 µM, α-MSH/IBMX co-treated cells): 20%
effect on intracellular melanin content ([4]; 5, 10, 20 µM, α-MSH + IBMX, 48 h): significantly and concentration-dependently reduced intracellular melanin increases
MITF protein levels (MITF in B16F10 cells; high concentrations (10–20 µM)): significantly and dose-dependently reduced MITF protein levels
MITF protein levels (MITF in B16F10 cells; low concentrations (2–5 μM)): MITF protein levels increased
